Data: BindingDB's records for doi:10.1016/j.bmcl.2009.09.014 (Johnson & Johnson Pharmaceutical, 2009)

Target: Cathepsin S (Homo sapiens, UniProt P25774)
Assay: Cathepsn S Inhibition Assay
Conditions: pH 5; 23 °C
Protocol: Enzyme assays were run using fluorescence resonance energy transfer-based substrates, (Aedens)[…](Dabcyl)K-amide and cathepsin S cleaves between amino acids Leu-6 and Ala-7. The fluorescence of the aedens group is quenched by the dabcyl moiety in the intact peptide. Upon cleavage by cathepsin S, the quenching is released and the fluorescence of the aedens group can be measured. The increase in fluorescence was measured on a Cytofluor II (Applied Biosystems, Foster City, CA) with an excitation filter of 360/40 nm and an emission filter of 460/40 nm. A reading was made every minute for 20 to 60 min, and the slope obtained from a linear regression of this time course was used as the reaction rate. The reaction rates were determined for different inhibitor concentrations, and the percentage of inhibition was determined by comparison with the reaction rate in the absence of inhibitor. IC50 values were determined by four parameter fits of plots of the percentage of inhibition versus inhibitor concentration using the program GraFit (Erithacus Software Ltd.).

Sequence of Cathepsin S (P25774 whole entry): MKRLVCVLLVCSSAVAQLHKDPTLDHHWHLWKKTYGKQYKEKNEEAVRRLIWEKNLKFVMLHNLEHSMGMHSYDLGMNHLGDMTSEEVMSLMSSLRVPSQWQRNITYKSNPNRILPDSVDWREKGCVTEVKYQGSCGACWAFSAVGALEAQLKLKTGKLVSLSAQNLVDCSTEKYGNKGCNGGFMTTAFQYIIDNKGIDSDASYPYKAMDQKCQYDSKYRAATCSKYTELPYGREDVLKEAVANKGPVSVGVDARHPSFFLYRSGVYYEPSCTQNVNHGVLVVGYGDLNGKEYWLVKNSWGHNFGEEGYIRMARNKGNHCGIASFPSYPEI

| SMILES | IC50 [µM] |
| --- | --- |
| C#Cc1cc(-c2nn(CCCN3CCOCC3)c3c2CN(S(C)(=O)=O)CC3)ccc1Cl [arylalkyne pyrazole-based compound, 11] | 7.4 |
| COC(=O)C(=O)N1CCc2c(c(-c3ccc(Cl)c(C#Cc4ccc(Cl)cc4)c3)nn2CCCN2CCOCC2)C1 [arylalkyne pyrazole-based compound, 33] | 0.04 |
